Data: PubChem BioAssay AID248 (DTP/NCI, 2004)
Several values for one entry are separate records, joined by “and”; a condition that tells them apart may be missing. Identical values can stand only once. Toxic doses and inconclusive results are not listed. Rule as the data show it: active = T/C of 150% or more; inactive = T/C below 125%.

System: L1210 leukemia ip in BDF1 mice, survival T/C
Assay: NCI In Vivo Anticancer Drug Screen. Data for tumor model L1210 Leukemia (intraperitoneal) in B6D2F1 (BDF1) mice
Settings: endpoint: mean survival time, higher = longer survival
In short: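 Survival endpoint. Drug-treated group vs vehicle group, expressed as T divided by C. Tumor passaged by transplantation.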

[1] = dose: 100.0 mg/kg/injection, schedule: Q01DX009 (ip), vehicle: saline
[2] = dose: 75.0 mg/kg/injection, schedule: Q01DX009 (ip), vehicle: saline with Tween-80
[3] = dose: 50.0 mg/kg/injection, schedule: Q01DX009 (ip), vehicle: saline with Tween-80
[4] = dose: 100.0 mg/kg/injection, schedule: Q01DX009 (ip), vehicle: saline with Tween-80
[5] = dose: 100.0 mg/kg/injection, schedule: Q04DX003 (ip), vehicle: saline with Tween-80
[6] = dose: 200.0 mg/kg/injection, schedule: Q01DX009 (ip), vehicle: saline with Tween-80
[7] = dose: 200.0 mg/kg/injection, schedule: Q04DX003 (ip), vehicle: saline with Tween-80
[8] = dose: 400.0 mg/kg/injection, schedule: Q04DX003 (ip), vehicle: saline with Tween-80
[9] = dose: 100.0 mg/kg/injection, schedule: Q01DX001 (ip), vehicle: carboxymethylcellulose (CMC)
[10] = dose: 200.0 mg/kg/injection, schedule: Q01DX001 (ip), vehicle: carboxymethylcellulose (CMC)
[11] = dose: 400.0 mg/kg/injection, schedule: Q01DX001 (ip), vehicle: carboxymethylcellulose (CMC)
[12] = dose: 100.0 mg/kg/injection, schedule: Q01DX001 (ip), vehicle: saline
[13] = dose: 200.0 mg/kg/injection, schedule: Q01DX001 (ip), vehicle: saline
[14] = dose: 400.0 mg/kg/injection, schedule: Q01DX001 (ip), vehicle: saline

Measured: T/C

c1ccc2c(c1)c(N1CCOCC1)nn1nnnc21
inactive: dose: 37.5 mg/kg/injection, schedule: Q04DX003 (ip), vehicle: saline 101 % of control | dose: 75.0 mg/kg/injection, schedule: Q04DX003 (ip), vehicle: saline 98 % of control | dose: 150.0 mg/kg/injection, schedule: Q04DX003 (ip), vehicle: saline 98 % of control

O=C1Oc2ccccc2C1=O
inactive: dose: 50.0 mg/kg/injection, schedule: Q01DX009 (ip), vehicle: saline 98 % of control | dose: 75.0 mg/kg/injection, schedule: Q01DX001 (ip), vehicle: other 101 % of control | [1] 102 % of control | dose: 100.0 mg/kg/injection, schedule: Q04DX003 (ip), vehicle: saline 109 % of control | dose: 150.0 mg/kg/injection, schedule: Q01DX001 (ip), vehicle: other 101 % of control | dose: 200.0 mg/kg/injection, schedule: Q01DX009 (ip), vehicle: saline 91 % of control | dose: 200.0 mg/kg/injection, schedule: Q04DX003 (ip), vehicle: saline 98 % of control

O=C(O)CCOc1ccccc1[N+](=O)[O-]
inactive: dose: 37.5 mg/kg/injection, schedule: Q01DX009 (ip), vehicle: saline with Tween-80 91 % of control | [2] 91 % of control | dose: 100.0 mg/kg/injection, schedule: Q01DX009 (ip), vehicle: Klucel (hydroxypropylcellulose) (HPC) 97 % of control | dose: 150.0 mg/kg/injection, schedule: Q01DX009 (ip), vehicle: saline with Tween-80 88 % of control | dose: 200.0 mg/kg/injection, schedule: Q01DX009 (ip), vehicle: Klucel (hydroxypropylcellulose) (HPC) 87 % of control | dose: 400.0 mg/kg/injection, schedule: Q01DX009 (ip), vehicle: Klucel (hydroxypropylcellulose) (HPC) 95 % of control

O=C(Nc1ccccc1[N+](=O)[O-])C(=O)Nc1ccccc1[N+](=O)[O-]
inactive: [3] 91 % of control | [4] 86 % of control | [5] 95 % of control | [6] 94 % of control | [7] 93 % of control

O=C(CCl)Oc1ccccc1
inactive: [3] 94 % of control | [4] 87 % of control | [5] 101 % of control | [7] 96 % of control

CCOC(=O)N1Cc2cc3cc(OC)c(OC)cc3nc2C1
inactive: [4] 109 % of control | [5] 106 % of control | [6] 94 % of control | [7] 97 % of control | dose: 400.0 mg/kg/injection, schedule: Q01DX009 (ip), vehicle: saline with Tween-80 108 % of control | [8] 96 % of control

COc1ccc(CCNCC(O)CSc2cccc(C)c2)cc1OC (configuration not stated)
inactive: dose: 75.0 mg/kg/injection, schedule: Q01DX001 (ip), vehicle: saline 101 % of control | dose: 150.0 mg/kg/injection, schedule: Q01DX001 (ip), vehicle: saline 95 % of control

Cc1cc(C)c(C(Cl)(Cl)Cl)c(C)c1Cl
inactive: dose: 22.0 mg/kg/injection, schedule: Q01DX009 (ip), vehicle: saline with Tween-80 119 % of control | dose: 33.0 mg/kg/injection, schedule: Q01DX009 (ip), vehicle: Klucel (hydroxypropylcellulose) (HPC) 113 % of control | dose: 33.0 mg/kg/injection, schedule: Q01DX009 (ip), vehicle: saline with Tween-80 112 % of control | dose: 50.0 mg/kg/injection, schedule: Q01DX009 (ip), vehicle: Klucel (hydroxypropylcellulose) (HPC) 100 % of control | [3] 118 % of control | dose: 75.0 mg/kg/injection, schedule: Q01DX009 (ip), vehicle: Klucel (hydroxypropylcellulose) (HPC) 107 % of control | [2] 113 % of control | [9] 121 % of control | [4] 121 % of control | [5] 120 % of control | [10] 118 % of control | [6] 103 % of control | [7] 108 % of control | [11] 121 % of control

O=C1C=CC(=O)N1C(=O)NC(I)NC(=O)N1C(=O)C=CC1=O
inactive: [9] 94 % of control | [10] 98 % of control | [11] 100 % of control

O=C(O)c1cc([N+](=O)[O-])cc([N+](=O)[O-])c1 (tested in a mixture with another compound)
inactive: dose: 3.13 mg/kg/injection, schedule: Q04DX002 (ip), vehicle: saline with Tween-80 100 % of control | dose: 6.25 mg/kg/injection, schedule: Q04DX002 (ip), vehicle: saline with Tween-80 106 % of control | dose: 25.0 mg/kg/injection, schedule: Q04DX002 (ip), vehicle: saline with Tween-80 96 % of control and 100 % of control | dose: 50.0 mg/kg/injection, schedule: Q04DX002 (ip), vehicle: saline with Tween-80 114 % of control

[O-][n+]1c(Cl)cccc1Cl
inactive: dose: 15.0 mg/kg/injection, schedule: Q01DX001 (ip), vehicle: carboxymethylcellulose (CMC) 103 % of control | dose: 30.0 mg/kg/injection, schedule: Q01DX001 (ip), vehicle: carboxymethylcellulose (CMC) 112 % of control | dose: 60.0 mg/kg/injection, schedule: Q01DX001 (ip), vehicle: carboxymethylcellulose (CMC) 105 % of control

CC(=O)N(N=O)c1ccc(C)cc1
inactive: dose: 5.0 mg/kg/injection, schedule: Q01DX001 (ip), vehicle: saline 101 % of control | dose: 10.0 mg/kg/injection, schedule: Q01DX001 (ip), vehicle: saline 92 % of control | dose: 20.0 mg/kg/injection, schedule: Q01DX001 (ip), vehicle: saline 92 % of control | dose: 40.0 mg/kg/injection, schedule: Q01DX001 (ip), vehicle: saline 106 % of control

NC(=O)c1cc(C(N)=O)c(N)nc1N
inactive: dose: 100.0 mg/kg/injection, schedule: Q04DX003 (ip), vehicle: Klucel (hydroxypropylcellulose) (HPC) 100 % of control | dose: 200.0 mg/kg/injection, schedule: Q04DX003 (ip), vehicle: Klucel (hydroxypropylcellulose) (HPC) 97 % of control | dose: 400.0 mg/kg/injection, schedule: Q04DX003 (ip), vehicle: Klucel (hydroxypropylcellulose) (HPC) 94 % of control

O=S(=O)(CS(=O)(=O)Nc1ccccc1)Nc1ccccc1
inactive: dose: 25.0 mg/kg/injection, schedule: Q04DX003 (ip), vehicle: saline with Tween-80 113 % of control | dose: 50.0 mg/kg/injection, schedule: Q04DX003 (ip), vehicle: saline with Tween-80 116 % of control | [12] 94 % of control | [5] 111 % of control | [13] 94 % of control | [14] 94 % of control

CC(=O)Nc1ccc2c(c1)C(=O)c1cc(NC(C)=O)ccc1-2
inactive: [3] 95 % of control | [4] 95 % of control | [5] 92 % of control | [6] 101 % of control | [7] 86 % of control | [8] 89 % of control

CN(C)/N=C1\CCc2ccccc21
inactive: [12] 106 % of control | [1] 102 % of control | [13] 113 % of control | [14] 101 % of control

CC(C)c1cc(O)ccc1N(C)C (tested in a mixture with another compound)
inactive: dose: 3.2 micrograms/kg/injection, schedule: Q01DX009 (ip), vehicle: saline 97 % of control | dose: 8.0 micrograms/kg/injection, schedule: Q01DX009 (ip), vehicle: saline 90 % of control | dose: 16.0 micrograms/kg/injection, schedule: Q01DX009 (ip), vehicle: saline 87 % of control | dose: 32.0 micrograms/kg/injection, schedule: Q01DX009 (ip), vehicle: saline 90 % of control

O=C(Nc1cc(NC(=O)Nc2cccc(C3=NCCN3)c2)cc(C(=O)Nc2ccccc2)c1)Nc1cccc(C2=NCCN2)c1
inactive: dose: 15.0 mg/kg/injection, schedule: Q01DX Z (ip), vehicle: carboxymethylcellulose (CMC) 94 % of control | dose: 30.0 mg/kg/injection, schedule: Q01DX Z (ip), vehicle: carboxymethylcellulose (CMC) 103 % of control | dose: 60.0 mg/kg/injection, schedule: Q01DX Z (ip), vehicle: carboxymethylcellulose (CMC) 97 % of control | dose: 120.0 mg/kg/injection, schedule: Q01DX Z (ip), vehicle: carboxymethylcellulose (CMC) 107 % of control and 91 % of control | dose: 240.0 mg/kg/injection, schedule: Q01DX Z (ip), vehicle: carboxymethylcellulose (CMC) 104 % of control

Cc1nn(O)ccc1=N
inactive: dose: 56.25 mg/kg/injection, schedule: Q04DX002 (ip), vehicle: saline 104 % of control | dose: 112.5 mg/kg/injection, schedule: Q04DX002 (ip), vehicle: saline 96 % of control | dose: 225.0 mg/kg/injection, schedule: Q04DX002 (ip), vehicle: saline 101 % of control
